Measured values taken from US10898458B2, “Self-micellizing fatty acids and fatty acid ester compositions and their use in the treatment of disease states” (Micelle BioPharma, Inc., priority 2013, dated 2021).
Values belong to the compound of their own block, whether it stands above or below them.

Legend:
[1] = in humans; cited from earlier work
porcine model of SBS [2] = assay: Small bowel morphometry (villus height, crypt depth), porcine SBS model; format: in vivo, piglets; details: within group
Protocol: (§1) The control group received a standard DHA ethyl ester preparation of substantially pure DHA ethyl ester (>90% DHA ethyl ester).
(§2) Samples of intestinal tissue resected at the time of surgery and remnants at sacrifice were collected from proximal jejunum (proximal to anastomosis) and distal ileum (distal to anastomosis) and morphological measurements of the crypts and villi were measured. Only intact villi and crypts were measured. All measurements were made by the same, single, blinded observer.
(§3) The primary outcome measure was a change in plasma DHA level in the SBS-treated group versus control group. Given the small number of piglets per group, appropriate small group statistical methods were used to evaluate differences in outcome variables. Variable summary statistics are expressed as median±interquartile range (IQR). The Wilcoxon Rank-Sum test, which is appropriate to compare two non-normal distributions as is common in small sample size, was used to compare outcome measures between groups; while the Wilcoxon signed-rank test, which is appropriate for repeated measurements within the same animal, was used to compare paired, before and after surgery outcome measures within groups. Differences in growth measurements and fatty acid levels over time between groups were evaluated using generalized linear mixed models (GLMM) to account for repeated measures and non-Gaussian, non-normal data.

porcine model of SBS [3] = assay: Growth (weight) in neonatal porcine model of SBS; format: in vivo, piglets; details: median ± IQR; for Change in weight: final minus starting weight, 4 days at 1 g/kg*day
Protocol: A study was conducted to evaluate, in an established porcine model of SBS, the systemic absorption and intestinal adaptation capacity of an ethyl ester form of DHA in combination with a surface active agent composition effective to spontaneously form micelles with said fatty acids upon contact with an aqueous media. In certain embodiments, the self-micellizing compositions may further contain at least one additional omega-3 fatty acid (either in the triglyceride, ester, or free fatty acid form), for example EPA or other known omega-3 fatty acids as disclosed herein. In certain embodiments, the self-micellizing compositions may further contain an anti-oxidant, such as tocopherol. In certain embodiments, the self-micellizing compositions may further contain an omega-6 fatty acid (either in the triglyceride, ester, or free fatty acid form), for example arachidonic acid (ARA), linoleic acid (LA), gamma-linolenic acid (GLA) or the omega-6 isomer of DPA, also known as osbond acid. This composition allows for micelle formation independent of the presence of bile salts as compared to a standard […] of DHA without a surface active agent (Control).
(§4) Newborn, crossbred (Hampshire×Landrace×Duroc×Yorkshire) piglets (n=10), were weighed, placed in cages in a heated room (˜30° C.), and were fed with a commonly available sow milk replacement formula. After an overnight fast, piglets underwent surgery for the placement of jugular and intragastric catheters for postoperative parenteral and enteral nutrition, respectively, and small bowel resection surgery. Following a 4-cm midline incision an 80% mid-jejunoileal resection was performed. The total amount of bowel resection was approximated using the following equation: total intestinal length=280 cm×body weight^0.60. A 20% remnant (˜60 cm total per kg BW) remained and was represented equally between proximal jejunum and ileum, representing ˜30 cm each remnant segment per kg bodyweight. ˜45 cm of jejunum distal to the ligament of Treitz and ˜45 cm of ileum proximal to the ileocecal junction were measured using sterile silk ribbon placed along the antimesentric border of the gently stretched small intestine. Intestine not included in the measurement was removed via cauterization. Bowel continuity was restored using an end-to-end jejunoileal anastomosis.
Continuous enteral feeding with a commonly available sow milk replacer formula, also lacking DHA, was slowly introduced 24 h after intestinal resection at 3 mL/kg*h via the intragastric catheter. The volume of enteral feedings was then advanced every 24 h by 1 ml/kg*h until a final enteral volume of 5 mL/kg*h was achieved on postoperative day 3 which represents approximately 50% of full enteral feeding volume and nutrient intake.
as §1
Piglets were weighed every other day. In addition to calculating a change in weight by subtracting the starting weight at the time of randomization from the final weight, percent weight change and growth velocity (g/kg*d) were also calculated. Percent weight change was calculated by: [((final weight-starting weight)/starting weight)×100]. Growth velocity was calculated by: [(weight change/starting weight)/4 days of treatment].
The primary outcome measure was a change in plasma DHA level in the SBS-treated group versus control group. […] Variable summary statistics are expressed as median±interquartile range (IQR). […]

[4] = Longitudinal plasma fatty acid levels, porcine SBS model; format: in vivo, piglets
Text: as §1
Blood samples for systemic fatty acid profiles were obtained on the day of surgery and then twice daily until sacrifice on fourth postoperative day. Plasma fatty acids were isolated and measured.
as §3

porcine model of SBS [5] = assay: Small intestine resection and final organ weights, porcine SBS model; format: in vivo, piglets; details: at sacrifice after 4 days; median ± IQR
Protocol: as §4, §1, §2, §3

patients with PSC = details: 12-month open-label pilot study, n=23; cited from earlier work
COX-1 = COX-1 (Homo sapiens, UniProt P23219); details: enzyme involved in synthesis of TXA2; cited from earlier work
COX-1, sequence (P23219 24-599): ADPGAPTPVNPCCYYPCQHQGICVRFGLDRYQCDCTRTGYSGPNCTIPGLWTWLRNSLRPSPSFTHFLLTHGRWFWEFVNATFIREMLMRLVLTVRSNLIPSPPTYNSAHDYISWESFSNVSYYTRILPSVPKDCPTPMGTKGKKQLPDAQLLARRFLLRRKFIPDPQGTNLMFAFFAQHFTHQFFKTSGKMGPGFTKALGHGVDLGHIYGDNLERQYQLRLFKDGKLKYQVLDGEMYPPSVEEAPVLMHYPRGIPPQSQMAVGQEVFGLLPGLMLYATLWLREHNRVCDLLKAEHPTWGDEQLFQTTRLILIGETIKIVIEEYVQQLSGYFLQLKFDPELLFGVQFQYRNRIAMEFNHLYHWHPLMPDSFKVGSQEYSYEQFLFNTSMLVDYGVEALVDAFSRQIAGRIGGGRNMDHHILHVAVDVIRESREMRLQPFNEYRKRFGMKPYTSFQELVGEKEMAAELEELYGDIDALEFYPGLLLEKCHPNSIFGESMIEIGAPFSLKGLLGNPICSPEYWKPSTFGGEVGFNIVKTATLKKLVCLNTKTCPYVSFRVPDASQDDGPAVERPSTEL

[6] = end of experiment vs time of surgery
[7] = Time 0, at the time of surgery (baseline)
[8] = within 12 hours, after the first enteral dose of DHA

SMILES: CC/C=C\C/C=C\C/C=C\CCCCCCCC(=O)O [ALA, alpha-linolenic acid]
Conversion to DHA [1]: 2-5%
Conversion to EPA [1]: 5-10%

Initial plasma ARA level [4, 7]: 11.8±0.5 mol %
Initial plasma DHA level [4, 7]: 2.3±0.4 mol %
Initial plasma EPA level [4, 7]: 0.3±0.1 mol %
Initial plasma LA level [4, 7]: 16.6±1.8 mol %
Plasma ARA level ([4]; third postoperative day): 8.7±0.8 mol %
Plasma DHA level [4, 8]: 2.5 mol %
Plasma EPA level [4, 8]: 0.2±0.005 mol %
SMILES: CC/C=C\C/C=C\C/C=C\C/C=C\C/C=C\C/C=C\CCC(=O)OCC [Control, DHA ethyl ester]
Villus height of distal ileum, Final vs Day 0 (porcine model of SBS [2]; [6]): reduced, but not significantly different
Villus height of proximal jejunum, Final vs Day 0 (porcine model of SBS [2]; [6]): not significantly different
Crypt depth of distal ileum, final vs baseline (porcine model of SBS [2]): increased from baseline
Crypt depth of proximal jejunum, final vs baseline (porcine model of SBS [2]; p<0.05): increased
Growth velocity (porcine model of SBS [3]; 4 days of treatment): 13.5 ± 30.1 g/kg/day
Weight change (porcine model of SBS [3]; 4 days of treatment): 5.4 ± 12.1%
Weight at finish (porcine model of SBS [3]; after 4 days at 1 g/kg*day via intragastric catheter): 2594 ± 170 g
Change in weight (porcine model of SBS [3]): 132 ± 278 g
Change in weight (porcine model of SBS [3]; listed as control): 132 ± 278 g
Brain (final weight) (porcine model of SBS [5]): 14.0 ± 1.6 g/kg
Ileum (final length) (porcine model of SBS [5]): 17.5 ± 4.7 cm/kg
Ileum (final weight) (porcine model of SBS [5]): 5.3 ± 1.2 g/kg
Jejunum (final length) (porcine model of SBS [5]): 21.2 ± 6.7 cm/kg
Jejunum (final weight) (porcine model of SBS [5]): 5.2 ± 1.4 g/kg
Liver (final weight) (porcine model of SBS [5]): 36.3 ± 2.5 g/kg

SMILES: CC/C=C\C/C=C\C/C=C\C/C=C\C/C=C\C/C=C\CCC(=O)O [DHA, (4Z,7Z,10Z,13Z,16Z,19Z)-docosa-4,7,10,13,16,19-hexaenoic acid]
Alkaline phosphatase (patients with PSC): significant decline
Serum DHA levels (patients with PSC): increase

SMILES: CC/C=C\C/C=C\C/C=C\C/C=C\C/C=C\CCCCCC(=O)O [Omega-3 DPA, all-cis-7,10,13,16,19-docosapentaenoic acid]
COX-1 activity (COX-1): potent inhibitor
